In US20050123912A1, “Nucleic-acid associated proteins” (priority 2002, published 2005):

Experiments:
[1] = system: SEQ ID NO:61 expression in human peripheral blood mononuclear cells (PBMCs); assay: Microarray expression of SEQ ID NO:61 in PBMCs treated with acetaminophen; format: cell-based; conditions: human PBMCs treated with acetaminophen compared to untreated cells
Excerpt: Therefore, SEQ ID NO:61 is useful in disease staging and in diagnostic assays for immune disorders.

[2] = system: SEQ ID NO:64 expression in human C3A liver cells; assay: Microarray expression of SEQ ID NO:64 in C3A liver cell cultures treated with steroids; format: cell-based; conditions: early confluent human C3A liver cells, 1 μM, 10 μM, and 100 μM for 1, 3, and 6 hours, compared to untreated cells
Procedure: Total RNA is isolated from tissue samples using the guanidinium thiocyanate method and poly(A)^+ RNA is purified using the oligo-(dT) cellulose method. Each poly(A)^+ RNA sample is reverse transcribed using MMLV reverse-transcriptase, 0.05 pg/μl oligo-(dT) primer (21mer), 1× first strand buffer, 0.03 units/μl RNase inhibitor, 500 μM dATP, 500 μM dGTP, 500 μM dTTP, 40 μM dCTP, 40 μM dCTP-Cy3 (BDS) or dCTP-Cy5 (Amersham Biosciences). The reverse transcription reaction is performed in a 25 ml volume containing 200 ng poly(A)^+ RNA with GEMBRIGHT kits (Incyte). Specific control poly(A)^+ RNAs are synthesized by in vitro transcription from non-coding yeast genomic DNA. After incubation at 37° C. for 2 hr, each reaction sample (one with Cy3 and another with Cy5 labeling) is treated with 2.5 ml of 0.5M sodium hydroxide and incubated for 20 minutes at 85° C. to the stop the reaction and degrade the RNA. Samples are purified using two successive CHROMA SPIN 30 gel filtration spin columns (Clontech, Palo Alto Calif.) and after combining, both reaction samples are ethanol precipitated using 1 ml of glycogen (1 mg/ml), 60 ml sodium acetate, and 300 ml of 100% ethanol. The sample is then dried to completion using a SpeedVAC (Savant Instruments Inc., Holbrook N.Y.) and resuspended in 14 μl 5×SSC/0.2% SDS.
Sequences of the present invention are used to generate array elements. Each array element is amplified from bacterial cells containing vectors with cloned cDNA inserts. PCR amplification uses primers complementary to the vector sequences flanking the cDNA insert. Array elements are amplified in thirty cycles of PCR from an initial quantity of 1-2 ng to a final quantity greater than 5 μg. Amplified array elements are then purified using [sequence]-400 (Amersham Biosciences). […]
Reporter-labeled hybridization complexes are detected with a microscope equipped with an Innova 70 mixed gas 10 W laser (Coherent, Inc., Santa Clara Calif.) capable of generating spectral lines at 488 nm for excitation of Cy3 and at 632 nm for excitation of Cy5. […]

[3] = relative to progesterone; cited from earlier work
[4] = intranasal; relative to hydrocortisone; cited from earlier work

| Compound | decrease in expression of SEQ ID NO:61 [1] | expression of SEQ ID NO:64 [2] | pharmacological activity greater than progesterone [3] | anti-inflammatory and vasoconstrictive effects greater than those produced by hydrocortisone [4] [times] |
| --- | --- | --- | --- | --- |
| CC(=O)Nc1ccc(O)cc1 [acetaminophen] | two-fold |  |  |  |
| 6α-methyl-17-hydroxyprogesterone [medroxyprogesterone] |  | decreased expression | about 15 times |  |
| C[C@H]1C[C@H]2[C@@H]3CCC4=CC(=O)C=C[C@]4(C)[C@@]3(Cl)[C@@H](O)C[C@]2(C)[C@@]1(O)C(=O)CO [beclomethasone] |  | decreased expression |  | 5000 |
| C[C@]12C=CC(=O)C=C1CC[C@@H]1[C@@H]2C(=O)C[C@@]2(C)[C@H]1CC[C@]2(O)C(=O)CO [prednisone] |  | decreased expression |  |  |
